Laboratory results reported in article PMC11020070, “Discovery of Protease-Activated Receptor 4 (PAR4)-Tethered Ligand Antagonists Using Ultralarge Virtual Screening” (ACS Pharmacology & Translational Science, 2024).
“Also recorded” adds a separate entry of the source.

What was measured:
Assay type in all cases: cell-based
PAR1 = biological target: T1, PAR1 (Homo sapiens, UniProt P25116); assay: Human platelet activation by PAR1 agonist peptide SFLLRN; settings: 10 μM compound, PAR1AP SFLLRN
T1 construct: endogenous in cells; host or cells: platelets
T1 sequence (P25116 22-425): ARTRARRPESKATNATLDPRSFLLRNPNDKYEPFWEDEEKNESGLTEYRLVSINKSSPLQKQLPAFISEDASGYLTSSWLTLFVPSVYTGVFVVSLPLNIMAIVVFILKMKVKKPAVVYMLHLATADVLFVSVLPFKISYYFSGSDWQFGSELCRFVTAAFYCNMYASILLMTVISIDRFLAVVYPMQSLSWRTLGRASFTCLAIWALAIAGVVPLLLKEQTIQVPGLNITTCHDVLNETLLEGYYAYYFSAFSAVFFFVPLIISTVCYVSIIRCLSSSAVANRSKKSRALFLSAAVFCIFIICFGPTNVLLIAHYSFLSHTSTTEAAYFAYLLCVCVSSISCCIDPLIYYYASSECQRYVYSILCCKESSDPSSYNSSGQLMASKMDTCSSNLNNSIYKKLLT
Protocol: (§1) Figure 5 (A) Off-target controls: % of vehicle control for γ-thrombin (100 nM), PAR4 component of α-thrombin (5 nM α-thrombin +1 μM vorapaxar), PAR4 agonist peptide 200 μM AYPGKF, 200 μM PAR1 agonist peptide SFLLRN, and GPVI agonist convulxin 3.16 nM.
(§2) Compounds were screened for inhibition activity against human PAR4 using 100 nM γ-thrombin or 200 μM PAR4-AP in a single-point assay (10 μM test compound). Dose–response curves were conducted for active compounds. Active compounds were also assessed at a single concentration of 10 μM against other agonists, including the PAR4 component of α-thrombin (5 nM α-thrombin +1 μM vorapaxar), the PAR1 agonist peptide (20 μM SFFLRN), and the GPVI receptor agonist convulxin (3 nM).

GPVI receptor = biological target: T2, GPVI receptor (Homo sapiens, UniProt Q9HCN6); assay: Off-target control: convulxin activation of GPVI receptor in human platelets; settings: 10 μM compound, convulxin 3.16 nM
T2 construct: endogenous in cells; host or cells: washed human platelets
T2 sequence (Q9HCN6 21-339): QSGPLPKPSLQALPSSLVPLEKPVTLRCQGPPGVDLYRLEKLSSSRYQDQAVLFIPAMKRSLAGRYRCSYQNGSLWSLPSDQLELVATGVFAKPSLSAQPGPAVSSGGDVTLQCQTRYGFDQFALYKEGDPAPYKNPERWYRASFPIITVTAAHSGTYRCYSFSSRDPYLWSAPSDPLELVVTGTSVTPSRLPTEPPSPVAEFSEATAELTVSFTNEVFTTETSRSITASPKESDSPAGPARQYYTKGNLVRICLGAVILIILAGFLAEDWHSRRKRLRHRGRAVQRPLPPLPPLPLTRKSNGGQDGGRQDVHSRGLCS
T2 sequence (P30273 19-86 partner): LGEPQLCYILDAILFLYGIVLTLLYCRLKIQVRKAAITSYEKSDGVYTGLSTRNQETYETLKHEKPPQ
Protocol: The hit compound (7) was tested against several platelet activators including targeting PAR1, PAR4, and GPVI collagen receptors (Figure 5). […] Taken together, the inhibition of the off-target GPVI and the divergence of the inhibition of the γ-thrombin readouts PAC1 vs P-selectin are consistent with the C5 compound not being a specific antagonist of PAR4.
as §1, §2

PAR4 = biological target: T3, PAR4 (Homo sapiens, UniProt Q96RI0); assay: Human platelet activation by PAR4 agonist peptide (PAR4-AP, AYPGKF); set-up: endogenous in cells; host or cells: platelets; settings: 10 μM compound, 200 μM AYPGKF
T3 sequence (Q96RI0 18-385): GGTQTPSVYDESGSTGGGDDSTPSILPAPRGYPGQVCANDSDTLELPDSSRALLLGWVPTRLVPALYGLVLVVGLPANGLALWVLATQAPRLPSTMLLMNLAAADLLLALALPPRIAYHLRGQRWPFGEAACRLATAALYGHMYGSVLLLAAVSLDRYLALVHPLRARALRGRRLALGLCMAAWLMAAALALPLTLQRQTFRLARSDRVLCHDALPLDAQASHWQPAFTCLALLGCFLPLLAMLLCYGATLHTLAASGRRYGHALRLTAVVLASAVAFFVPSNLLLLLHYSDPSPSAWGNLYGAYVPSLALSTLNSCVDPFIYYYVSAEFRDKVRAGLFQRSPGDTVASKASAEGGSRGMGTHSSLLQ
Protocol: To test the antagonistic effect of the compounds on PAR4, a flow cytometry assay of human platelets was employed. Each compound was screened at 10 μM in human platelets using flow cytometry for GPIIbIIIa activation (PAC1) and P-selectin (CD62p) expression as previously described.[4] Activation of GPIIbIIIa allows interaction with divalent fibrinogen or multivalent von Willebrand factor, leading to platelet aggregation.[41] PAR4 stimulation also triggers α-granule secretion containing P-selectin.[5] […] Platelets were treated with each test compound or vehicle control DMSO before activating with γ-thrombin (100 nM) or PAR4 agonist peptide mimetic (200 μM, “PAR4-AP” AYPGKF) for 30 min. γ-thrombin activates PAR4 but not PAR1.[42] […]
Activation of washed human platelets was monitored by flow cytometry for the detection of PAC1 (GPIIbIIIa activation) and CD62p (P-selectin expression) binding as previously described.[4] […] Platelets were collected, counted on a Z1 Coulter Particle Counter (Beckman Coulter, Brea, CA), and diluted in TBB to 1.5 × 10^7 platelets/mL. […] Data were collected on a three-laser BD LSRFortessa (Becton Dickinson) and analyzed with FlowJo software (FlowJo LLC, Ashland, OR). The mean fluorescence intensity (geometric) of PE and FITC was determined from 30,000 events after compensation correction. […]

For `Cc1nc(NC(=O)c2cc(-c3ccccc3)n(-c3ccccc3)n2)n[nH]1` [Compound 7], which “inhibition of PAR1 agonist peptide activation” value (PAR1) is on record?
Its value is “did not inhibit”.

And the “inhibition of convulxin activation of GPVI receptor” value (GPVI receptor)?
Its value is “did not inhibit”.

And the “inhibition of PAR4 agonist peptide activation” value (PAR4)?
Its value is “not inhibiting; also recorded: did not inhibit”.
